From PubChem BioAssay AID192 (DTP/NCI, 2004) come the findings set out here.

Where “and” joins values, the source holds several entries; their conditions need not be identical. Equal values may be shown once. Toxic doses and inconclusive results are not listed.

In this experiment the test system is BDF1 mice, B16 melanoma ip, median survival T/C. Put plainly: NCI In Vivo Anticancer Drug Screen. Data for tumor model B16 Melanoma (intraperitoneal) in B6D2F1 (BDF1) mice. The following applies: endpoint: median survival time, higher = longer survival. An outline of the steps: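 Transplantable tumor model; survival or tumor size measured; reported as T/C, treated over vehicle control.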

The mark [1] stands for this setting: dose: 50.0 mg/kg/injection, schedule: Q01DX009 (ip), vehicle: saline with Tween-80.
Setting [2] is: dose: 100.0 mg/kg/injection, schedule: Q01DX009 (ip), vehicle: saline with Tween-80.
Setting [3] is: dose: 100.0 mg/kg/injection, schedule: Q01DX009 (ip), vehicle: Klucel (hydroxypropylcellulose) (HPC).
Where [4] appears, read: dose: 200.0 mg/kg/injection, schedule: Q01DX009 (ip), vehicle: Klucel (hydroxypropylcellulose) (HPC).
Where [5] appears, read: dose: 12.5 mg/kg/injection, schedule: Q01DX009 (ip), vehicle: Klucel (hydroxypropylcellulose) (HPC).
Setting [6] is: dose: 50.0 mg/kg/injection, schedule: Q01DX009 (ip), vehicle: saline.
Setting [7] is: dose: 100.0 mg/kg/injection, schedule: Q01DX009 (ip), vehicle: saline.
[8] abbreviates: dose: 50.0 mg/kg/injection, schedule: Q01DX009 (ip), vehicle: Klucel (hydroxypropylcellulose) (HPC).
Where [9] appears, read: dose: 400.0 mg/kg/injection, schedule: Q01DX009 (ip), vehicle: Klucel (hydroxypropylcellulose) (HPC).

With `CN(C)c1c(-c2ccccc2)cc(-c2ccccc2)[nH]c1=O`, the T/C reads like this: under setting [1], 92 % of control; under setting [2], 86 % of control.
For the molecule `Cc1cc(Cl)ccc1NS(=O)(=O)c1ccccc1`, the T/C is, setting by setting: under setting [3], 88 % of control; under setting [4], 88 % of control.
`CCCC(=O)OCC1OC(n2cnc3c(=S)nc(N)[nH]c32)C(OC(=O)CCC)C1OC(=O)CCC` (centres undefined): the T/C runs as follows: (dose: 0.78 mg/kg/injection, schedule: Q01DX009 (ip), vehicle: Klucel (hydroxypropylcellulose) (HPC)) 106 % of control; (dose: 1.56 mg/kg/injection, schedule: Q01DX009 (ip), vehicle: Klucel (hydroxypropylcellulose) (HPC)) 112 % of control; (dose: 3.12 mg/kg/injection, schedule: Q01DX009 (ip), vehicle: Klucel (hydroxypropylcellulose) (HPC)) 113 % of control; (dose: 6.25 mg/kg/injection, schedule: Q01DX009 (ip), vehicle: Klucel (hydroxypropylcellulose) (HPC)) 103 % of control and 106 % of control; under setting [5], 87 % of control.
As for `Cc1c2ccccc2c(C)c2c1ccc1ccccc12`, the T/C by setting is: (dose: 2.0 mg/kg/injection, schedule: Q01DX009 (ip), vehicle: saline with Tween-80) 100 % of control; (dose: 4.0 mg/kg/injection, schedule: Q01DX009 (ip), vehicle: saline with Tween-80) 108 % of control; (dose: 16.0 mg/kg/injection, schedule: Q01DX009 (ip), vehicle: saline with Tween-80) 108 % of control.
Consider `CC(C)NC(=O)N(c1ccccc1)c1ccccc1`, for which the T/C by setting is: (dose: 75.0 mg/kg/injection, schedule: Q01DX009 (ip), vehicle: gum acacia) 99 % of control; (dose: 150.0 mg/kg/injection, schedule: Q01DX009 (ip), vehicle: gum acacia) 103 % of control; (dose: 300.0 mg/kg/injection, schedule: Q01DX009 (ip), vehicle: gum acacia) 99 % of control.
`Cc1ccccc1SSc1ccccc1C`: the T/C runs as follows: (dose: 12.5 mg/kg/injection, schedule: Q01DX009 (ip), vehicle: saline with Tween-80) 105 % of control; (dose: 25.0 mg/kg/injection, schedule: Q01DX009 (ip), vehicle: saline with Tween-80) 104 % of control; under setting [1], 98 % of control; under setting [2], 103 % of control; (dose: 200.0 mg/kg/injection, schedule: Q01DX009 (ip), vehicle: saline with Tween-80) 98 % of control.
Regarding `CCN(CC)CCN(C)C`, the T/C is 118 % of control under setting [6]; 112 % of control under setting [7]; 103 % of control (dose: 200.0 mg/kg/injection, schedule: Q01DX009 (ip), vehicle: saline).
With `NC(=O)Nc1n[nH]c(-c2ccccc2)n1`, the T/C reads like this: (dose: 25.0 mg/kg/injection, schedule: Q01DX009 (ip), vehicle: saline) 99 % of control; under setting [6], 99 % of control; under setting [7], 86 % of control.
In the case of `C/C=C\C1OC1(C)c1cc(=O)c2c(C)cc3c(c2o1)C(=O)c1c(O)c(C2CC(C)(N(C)C)C(OC(C)=O)C(C)O2)cc(C2CC(N(C)C)C(O)C(C)O2)c1C3=O` (centres undefined), the T/C is, setting by setting: (dose: 0.1 mg/kg/injection, schedule: Q01DX009 (ip), vehicle: saline) 100 % of control; (dose: 0.2 mg/kg/injection, schedule: Q01DX009 (ip), vehicle: saline) 100 % of control; (dose: 0.35 mg/kg/injection, schedule: Q01DX009 (ip), vehicle: saline with Tween-80) 88 % of control; (dose: 0.4 mg/kg/injection, schedule: Q01DX009 (ip), vehicle: saline) 100 % of control; (dose: 0.7 mg/kg/injection, schedule: Q01DX009 (ip), vehicle: saline with Tween-80) 95 % of control; (dose: 0.8 mg/kg/injection, schedule: Q01DX009 (ip), vehicle: saline) 106 % of control.
Turning to `O=[N+]([O-])c1cc2c(c([N+](=O)[O-])c1)OCOC2`, under setting [4], the T/C is 100 % of control.
Take `COc1cc(NS(C)(=O)=O)ccc1Nc1c2ccccc2nc2c(C)cccc12`: the T/C was 151 % of control (dose: 2.0 mg/kg/injection, schedule: Q01DX009 (ip), vehicle: saline); 180 % of control (dose: 2.5 mg/kg/injection, schedule: Q01DX009 (ip), vehicle: other); 213 % of control (dose: 4.0 mg/kg/injection, schedule: Q01DX009 (ip), vehicle: saline); 190 % of control (dose: 5.0 mg/kg/injection, schedule: Q01DX009 (ip), vehicle: other); 167 % of control (dose: 5.0 mg/kg/injection, schedule: Q01DX009 (ip), vehicle: saline with Tween-80); 163 % of control (dose: 10.0 mg/kg/injection, schedule: Q01DX001 (ip), vehicle: saline sonified). The T/C by setting is: (dose: 12.5 mg/kg/injection, schedule: Q04DX003 (ip), vehicle: Klucel (hydroxypropylcellulose) (HPC)) 160 % of control; (dose: 20.0 mg/kg/injection, schedule: Q01DX001 (ip), vehicle: saline sonified) 166 % of control; (dose: 25.0 mg/kg/injection, schedule: Q04DX003 (ip), vehicle: Klucel (hydroxypropylcellulose) (HPC)) 200 % of control; (dose: 60.0 mg/kg/injection, schedule: Q01DX001 (ip), vehicle: saline sonified) 183 % of control.
`O=C(C=C(C(F)(F)Cl)C(F)(F)Cl)c1cccs1`: the T/C is, setting by setting: (dose: 0.31 mg/kg/injection, schedule: Q01DX009 (ip), vehicle: saline) 97 % of control; (dose: 0.62 mg/kg/injection, schedule: Q01DX009 (ip), vehicle: saline) 92 % of control; (dose: 2.5 mg/kg/injection, schedule: Q04DX003 (ip), vehicle: saline) 97 % of control; (dose: 5.0 mg/kg/injection, schedule: Q04DX003 (ip), vehicle: saline) 105 % of control; (dose: 10.0 mg/kg/injection, schedule: Q04DX003 (ip), vehicle: saline) 90 % of control.
For the molecule `ClCC[N-]CC[N-]CCCl.ClCC[N-]CC[N-]CCCl.[O-][Cl+3]([O-])([O-])O.[Zn+2]`, the T/C by setting is: (dose: 2.5 mg/kg/injection, schedule: Q01DX009 (ip), vehicle: Klucel (hydroxypropylcellulose) (HPC)) 106 % of control; (dose: 5.0 mg/kg/injection, schedule: Q01DX009 (ip), vehicle: Klucel (hydroxypropylcellulose) (HPC)) 92 % of control; (dose: 10.0 mg/kg/injection, schedule: Q01DX009 (ip), vehicle: Klucel (hydroxypropylcellulose) (HPC)) 101 % of control; (dose: 20.0 mg/kg/injection, schedule: Q01DX009 (ip), vehicle: Klucel (hydroxypropylcellulose) (HPC)) 104 % of control.
For `Cc1cnc(=S)[nH]c1N`, the T/C is, setting by setting: under setting [8], 108 % of control; under setting [3], 97 % of control; under setting [4], 94 % of control.
Consider `CCN(CC)CCOc1ccc(Br)cc1`, for which the T/C by setting is: under setting [5], 96 % of control; under setting [8], 87 % of control and 98 % of control.
For the molecule `Cc1ccc(NC(=O)c2cccc(C(=O)Nc3ccc(C)cc3C)c2)c(C)c1`, the T/C under setting [5] is 115 % of control; the T/C (dose: 25.0 mg/kg/injection, schedule: Q01DX009 (ip), vehicle: Klucel (hydroxypropylcellulose) (HPC)) is 96 % of control; the T/C under setting [8] was 102 % of control.
As for `Cc1cc(Cl)ccc1NC(=O)c1ccccc1Cl`, the T/C is 114 % of control under setting [3], 122 % of control under setting [4] and 110 % of control under setting [9].
On to `Cc1ccc(N=P(c2ccccc2)(c2ccccc2)c2ccccc2)cc1`, for which the T/C runs as follows: under setting [3], 94 % of control; under setting [4], 108 % of control; under setting [9], 91 % of control.
For the molecule `CCCCCCCCNc1cc2c3c(c1)CCCN3CCC2`, the T/C runs as follows: (dose: 0.75 mg/kg/injection, schedule: Q01DX009 (ip), vehicle: Klucel (hydroxypropylcellulose) (HPC)) 88 % of control; (dose: 1.5 mg/kg/injection, schedule: Q01DX009 (ip), vehicle: Klucel (hydroxypropylcellulose) (HPC)) 97 % of control; (dose: 6.0 mg/kg/injection, schedule: Q01DX009 (ip), vehicle: Klucel (hydroxypropylcellulose) (HPC)) 90 % of control.
